Measurements published in publication PMC4912218, “Targeted metabolomics of Gammarus pulex following controlled exposures to selected pharmaceuticals in water” (The Science of the Total Environment, 2016).
≈ marks a conversion by molar mass, not a printed value.

Assays:
Thamnocephalus platyurus = details: ref Kim et al., 2009; cited from earlier work
[1] = Internal pharmaceutical residue concentration in exposed G. pulex (SPE, LC-MS/MS); details: C1 dose, 24 h
Method: Quantification of pharmaceutical concentrations in G. pulex at the 24 h exposure interval was performed. Separate exposures were set up in triplicate in beakers containing 200 mL of exposure solution (AFW spiked with the respective C1 pharmaceutical dose) and 20 organisms. At 24 h, animals were immediately rinsed with ultra-pure water and then frozen at − 20 °C for 24 h. […] Prior to extraction, frozen G. pulex samples were lyophilised at − 50 °C under vacuum for 48 h and milled in an agate mortar to a fine powder. For each analysis, 20 mg of a lyophilised composite sample were transferred to 2 mL polypropylene tubes (Eppendorf®, Hamburg, Germany), for solid-liquid extraction (SLE). […]
Briefly, 50 mg of lyophilised G. pulex were extracted in 5 mL of acetonitrile and pre-concentrated on Oasis HLB SPE cartridges (6 mL, 200 mg sorbent). […] Organic acids, nucleosides, nucleotides, sugars and AAs were measured using LC–HRMS. […]
Here, pharmaceutical residue quantification in exposed G. pulex was performed by a 3-point matrix-matched calibration curve. […] L-ornithine hydrochloride, inosine, thymidine, taurine, 1.7-dimethylxanthine and (−)-riboflavin were quantified using either ^13C,^15N-proline or ^13C,^15N-tyrosine as the internal standard. The remaining 15 compounds were quantified using external calibration and the target compound itself was used as external standard. […]

Gammarus pulex = assay: in vivo; details: G. pulex
Method: (§1) From these toxicity profiles the NOAEL and the LOAEL were determined. Exposure experiments were performed in Pyrex® beakers, each containing 200 mL of AFW at 15 °C and ten adult animals (> 5 mg wet weight, ww). Live/dead animals were counted after 24 h by gently prodding and observing movement of appendages. The pharmaceutical concentrations tested were in the range of 0.01 to 250 mg L^− 1. […] Concentrations where 100, 50 and 0% of the animals died were repeated in duplicate or triplicate.

in vivo = details: in vivo
Method: as §1

Oc1cc(Cl)ccc1Oc1ccc(Cl)cc1Cl [Triclosan]
24 h- LC50 T. platyurus (Thamnocephalus platyurus): 0.47 mg/L | internal concentration in G. pulex (detection) [1]: not quantifiable | LC10 (Gammarus pulex; 24 h): 0.20 mg/L (≈ 0.691 µM) | LOAEL (C2) (Gammarus pulex; 24 h acute toxicity profile): 0.3 mg L^− 1 | NOAEL (C1) (Gammarus pulex; 24 h acute toxicity profile): 0.1 mg L^− 1 | LC50 at 24 h (in vivo): 0.57 mg/L (≈ 1.97 µM)
